Reference: patent US12465601B2, “Uses of phosphodiesterase inhibitors” (TRANSTHERA SCIENCES (NANJING), INC., priority 2019, dated 2025)

Legend:
[1] = tested on: HEK293T cells double transfected with human PDE9A2 and natriuretic peptide protein receptor 1 (NPR1); experiment: Effect on cGMP content in transiently transfected HEK293T cells (ANF-stimulated, cGMP ELISA); assay type: cell-based; conditions: ANF 1 μM; compound 0.12-30 μM; FIG. 1
Experimental: Cell name: Human embryonic kidney cell HEK293T
HEK293T cells were plated in a 6-well plate at 2×10^6 cells/well and cultured for 6 h to allow for adherence of cells.
The medium of each well was changed to 1.5 mL DMEM complete medium;
Non-transfected wells: An equal volume of DMEM complete medium (700 μL DMEM complete medium) was added to non-transfected wells.
The medium was aspirated from each well. The cells were washed once with PBS, and 250 μL of 0.5 M perchloric acid was added.
The cells were collected with a cell scraper, and transferred into a 1.5 mL centrifuge tube. After homogeneously mixing by vortex, the cells were centrifuged at 6000 g for 20 min at 4° C. […]
The plate was washed thoroughly 5 times, then 200 μL of Ellman's Reagent was added to each well. The plate was sealed, shaken in the dark, and color-developed for 60 min, and then detected for absorbance value at 412 nm.
Firstly, the non-specific binding (the reading of each well minus the reading of the NSB well) was subtracted, and then B/B0 was calculated, that is, the ratio of the binding of the sample or standard to the maximum binding, and converted according to the following formula, and then the obtained logit(B/B0) and lg (compound concentration) were subjected to linear regression analysis to obtain a standard curve. logit(B/B0)=ln[B/B0/(1−B/B0)] […]

rats with heart failure = experiment: Heart failure models of rats induced by coronary artery ligation; assay type: in vivo, Sprague Dawley rats; conditions: 30 mpk p.o bid, 28 days
Experimental: Sprague Dawley rats (SD rats), male, weight of about 220 g during modeling. Before operation, the animals were anesthetized by intraperitoneal injection of sodium pentobarbital injection, and atropine was injected intraperitoneally to eliminate phlegm. After the rat was anesthetized and fixed in supine position, a ventilator was used for assisted breathing, the chest was opened between the third and fourth ribs, and the left anterior descending coronary artery was ligated with a 5-0 suture needle. After the ligation was completed, the chest cavity was closed, the skin was sutured, and the rats were put in an insulation blanket for recovery. The same operation was performed on the sham group, except for the silk ligature operation. After the operation, the rats were subjected to intramuscular injection of meloxicam for pain relief, intraperitoneal injection of gentamicin sulfate injection for eliminating infection, and intraperitoneal injection of lidocaine for preventing ventricular fibrillation. One week after the animals recovered from surgery, the model rats were divided into a model group and a therapeutic drug group (compound 102 group), and the vehicle and compound 102 were administered by gavage, respectively, twice a day for four consecutive weeks. During the experiment, the living status of the animals were observed and abnormal conditions were recorded to evaluate the safety of the compound; and administration was performed for 28 days. The animals were anesthetized by intraperitoneal injection of sodium pentobarbital on the second day after the last administration, and echocardiographic detection and hemodynamic detection were performed to evaluate the effect of the compound on cardiac systolic function and ventricular volume. After the end of the experiment, end point treatment was performed, and the heart was taken for material collection for subsequent related researches on cGMP and protein expression. One week after the animals recovered from surgery, the rats were anesthetized with isoflurane, and a small animal ultrasound imaging system Vevo was used to examine the left ventricular function of the model rats. The model was considered successful if the LVEF % was reduced by 30%. Except for the sham group, the animals were randomly divided into 2 groups according to LVEF % and body weight. The number of animals in each group and the method of administration were as follows: [table] At the end of the experiment, rats were sacrificed and the infarct heart tissue was fixed with 4% formaldehyde, dehydrated, embedded in paraffin, and sectioned. Collagen deposition status was observed under a microscope by means of using Sirius red staining, and the Leica aperio digital slice scanning system was used for scanning analysis. The main evaluation indexes are LVEF % (left ventricular ejection fraction), FS (left ventricular fractional shortening), ESV (left ventricular end-systolic volume), EDV (left ventricular end-diastolic volume), and heart rate (HR). At the end of the experiment, the proportion of Sirius red in peri-infarction zone was quantified to evaluate the collagen deposition status. The data was represented by Mean±S.E.M, and Graphpad Prism 5.0 was used for statistical mapping. Statistical analysis was performed with T-test.

## CCc1cc2c(N3CCC(C)(OC)CC3)c(C#N)c(=O)[nH]c2cn1 [Compound 102, 6-ethyl-4-(4-methoxy-4-methylpiperidin-1-yl)-2-oxo-1,2-dihydro-1,7-diazanaphthalene-3-carbonitrile]
[1]
  cGMP content in HEK293T cells: Up-regulation effect
Rats with heart failure; Mean ± S.E.M, Sirius red staining, P<0.001 vs model group
  Percentage (%) of collagen deposition in the peri-infarction zone: 21.5 ± 1.234 %
Rats with heart failure; compared with model group P<0.001
  collagen deposition in the peri-infarction zone (in words): significantly reduce
Rats with heart failure; vs model group P<0.001, FIG. 3
  LVEF (left ventricular ejection fraction): improve the reduction
Rats with heart failure; vs model group P<0.001, FIG. 4
  FS (left ventricular fractional shortening): improve the reduction
Rats with heart failure; vs model group P<0.01, FIG. 5
  ESV (left ventricular end-systolic volume): significant improvement effect
Rats with heart failure; vs model group P<0.05, FIG. 6
  EDV (left ventricular end-diastolic volume): significant improvement effect
